We go through eleven molecules from ChEMBL document CHEMBL1201862, “PubChem BioAssay data set” (2004).

Among the test systems are SR; MDA-MB-435; TK-10; RPMI-8226; PC-3; 786-0; BT-549; SN12C; SW-620; HOP-62; MOLT-4; LOX IMVI; IGROV-1; T47D; U-251; KM12; M14; NCI-H460; UO-31.
Common to all, as to assay: NCI tumour cell line growth inhibition, 48 h

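Compound exposure: 48 hours, 5 concentrations, 96-well plates. At the GI50, growth is halved.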 Calls of active or inactive are those of the source. No stated cut-off is given here; in the data, active = GI50 up to about 1.1 µM and inactive = higher. Where a SMILES comes first, the peptide text is derived from it. [ ]: non-standard residue; d: D form. Phe(4-NO2) = N[CH](Cc1ccc([N+](=O)[O-])cc1)C(=O)O Bounds are passed on as bounds.

For `COc1cc2c3c(c1OC)C1(C=CC(=O)C=C1)CC3NCC2` (stereo not given), the GI50 in the experiment on SR is > 100 µM (inactive); with MDA-MB-435 it was > 100 µM (inactive); in the experiment with TK-10, > 100 µM (inactive); with RPMI-8226, > 100 µM (inactive); with PC-3, > 100 µM (inactive); with 786-0 it was 44 µM (inactive). Besides, the GI50 in the experiment with BT-549, in the experiment with SN12C, with SW-620, in the experiment on HOP-62, in the experiment with MOLT-4 and in the experiment with LOX IMVI was > 100 µM (inactive) in each case. Besides, the GI50 is > 100 µM (inactive) in the experiment on IGROV-1; > 100 µM (inactive) in the experiment on T47D; > 100 µM (inactive) in the experiment with U-251; 80 µM (inactive) in the experiment on KM12; > 100 µM (inactive) with M14; > 100 µM (inactive) in the experiment with NCI-H460.

As for `CN(CCNC(=O)c1nn(-c2ccccc2)c2c1Cc1ccccc1-2)CCNC(=O)c1nn(-c2ccccc2)c2c1Cc1ccccc1-2`, the GI50 in the experiment on MDA-MB-435 is 1.61 µM (inactive); in the experiment on TK-10, 2.04 µM (inactive); with RPMI-8226 it was 4.01 µM (inactive); with PC-3, 2.19 µM (inactive); in the experiment on 786-0, 1.66 µM (inactive); with BT-549 it was 4.06 µM (inactive). Also, the GI50 with SN12C was 1.83 µM (inactive); in the experiment on SW-620 it was 1.48 µM (inactive); with HOP-62 it was 1.79 µM (inactive); in the experiment with MOLT-4 it was 3.65 µM (inactive); in the experiment with LOX IMVI, 1.74 µM (inactive); in the experiment with IGROV-1, 1.67 µM (inactive). The GI50 was 2.48 µM (inactive) in the experiment on T47D; 1.71 µM (inactive) in the experiment on U-251; 1.63 µM (inactive) with UO-31; 1.79 µM (inactive) in the experiment with KM12; 1.79 µM (inactive) in the experiment with M14; 1.69 µM (inactive) in the experiment on NCI-H460.

`COc1ccc(-c2nc3c(C(=O)NCCN(C)C)cccc3c3ccccc23)cc1`: the GI50 with SR is 2.43 µM (inactive); in the experiment with MDA-MB-435, 2.2 µM (inactive); with TK-10, 7.67 µM (inactive); in the experiment on PC-3 it was 3.73 µM (inactive); in the experiment with 786-0 it was 2.49 µM (inactive); in the experiment with BT-549, 10.5 µM (inactive). Moreover, the GI50 in the experiment on SN12C is 4.2 µM (inactive); in the experiment on SW-620, 3.62 µM (inactive); in the experiment on HOP-62, 3.06 µM (inactive); with MOLT-4 it was 2.07 µM (inactive); with LOX IMVI it was 1.5 µM (inactive); in the experiment on IGROV-1, 3.47 µM (inactive). The GI50 in the experiment on T47D is 8.99 µM (inactive); in the experiment with U-251 it was 2.86 µM (inactive); in the experiment with UO-31, 1.16 µM (inactive); in the experiment with KM12, 3.58 µM (inactive); in the experiment on M14, 1.98 µM (inactive); in the experiment with NCI-H460 it was 2.45 µM (inactive).

Turning to `Nc1nc(Cl)cc(NCC2(CO)CC(=O)C2)n1`, the GI50 in the experiment on SR, with MDA-MB-435, with TK-10, in the experiment with RPMI-8226, in the experiment with PC-3 and in the experiment with 786-0 was > 100 µM (inactive) each time. For the same molecule, the GI50 in the experiment on BT-549, in the experiment with SN12C, in the experiment on SW-620, with HOP-62, with MOLT-4 and with LOX IMVI was > 100 µM (inactive) throughout. The GI50 was > 100 µM (inactive) in the experiment with IGROV-1; 21.2 µM (inactive) in the experiment with T47D; > 100 µM (inactive) in the experiment with U-251; > 100 µM (inactive) with UO-31; > 100 µM (inactive) with KM12; > 100 µM (inactive) with NCI-H460.

With `O=C1CC(CC(O)C(O)CO)CC(=O)N1` (stereo not given), the GI50 with MDA-MB-435, in the experiment with TK-10, with RPMI-8226, in the experiment with PC-3, in the experiment with 786-0 and in the experiment with BT-549 was > 100 µM (inactive) in each case. The GI50 in the experiment with SN12C, in the experiment with SW-620, in the experiment with HOP-62, in the experiment with MOLT-4, in the experiment with LOX IMVI and in the experiment on IGROV-1 was > 100 µM (inactive) each time. In addition, the GI50 in the experiment with T47D, in the experiment on U-251, in the experiment with UO-31, with KM12, with M14 and in the experiment with NCI-H460 was > 100 µM (inactive) in each case.

With `O=C1NC2=NOC(=O)NC2=NO1`, the GI50 with MDA-MB-435, in the experiment on TK-10, in the experiment on RPMI-8226, in the experiment on PC-3, in the experiment on 786-0 and with BT-549 was > 200 µM (inactive) each time. Also, the GI50 with SN12C, in the experiment on SW-620, in the experiment with HOP-62, with MOLT-4, with LOX IMVI and in the experiment on IGROV-1 was > 200 µM (inactive) throughout. The GI50 with T47D, in the experiment on U-251, in the experiment with UO-31, in the experiment on KM12, in the experiment on M14 and in the experiment on NCI-H460 was > 200 µM (inactive) in each case.

As to `Nc1ccccc1-c1noc(=O)[nH]1`, the GI50 in the experiment with SR, in the experiment with MDA-MB-435, in the experiment with TK-10, in the experiment on RPMI-8226, with PC-3 and with 786-0 was > 100 µM (inactive) each time. Also, the GI50 in the experiment on BT-549, with SN12C, in the experiment with SW-620, with HOP-62, in the experiment with MOLT-4 and in the experiment on LOX IMVI was > 100 µM (inactive) throughout. The GI50 is 60.4 µM (inactive) with IGROV-1; > 100 µM (inactive) in the experiment with T47D; > 100 µM (inactive) in the experiment with U-251; > 100 µM (inactive) with UO-31; > 100 µM (inactive) in the experiment on KM12; > 100 µM (inactive) with M14.

In the case of `Cc1cc(C)cc(Nc2nnc3n2S(=O)(=O)c2cc(C#N)c(Cl)cc2S3)c1`, the GI50 with SR is 0.507 µM (active); in the experiment on MDA-MB-435, 3.03 µM (inactive); in the experiment with 786-0, 2.22 µM (inactive); in the experiment on BT-549, 2.16 µM (inactive); in the experiment on SN12C, 2.59 µM (inactive); with SW-620 it was 2.39 µM (inactive). Moreover, the GI50 with HOP-62 was 2.77 µM (inactive); with MOLT-4 it was 1.11 µM (active); in the experiment on LOX IMVI it was 2.89 µM (inactive); in the experiment on IGROV-1 it was 0.505 µM (active); in the experiment with T47D, 3.26 µM (inactive); in the experiment with U-251, 1.96 µM (inactive). The GI50 in the experiment with UO-31 was 4.86 µM (inactive); in the experiment with KM12 it was 1.89 µM (inactive); in the experiment with M14, 5.57 µM (inactive); in the experiment on NCI-H460, 3.14 µM (inactive).

For the molecule `CC(NC(=O)C(Cc1ccc([N+](=O)[O-])cc1)NC(=O)C(N)CCCCN)C(=O)NC(Cc1ccc([N+](=O)[O-])cc1)C(N)=O` (stereo not given) (H-K[Phe(4-NO2)]A[Phe(4-NO2)]-NH2; configuration not given here), the GI50 is > 52.6 µM (inactive) with MDA-MB-435; > 59.4 µM (inactive) with TK-10; 29.2 µM (inactive) in the experiment on RPMI-8226; 32.5 µM (inactive) in the experiment with PC-3; 21.9 µM (inactive) with 786-0; 27.6 µM (inactive) in the experiment on BT-549. Also, the GI50 with SN12C was 24.9 µM (inactive); in the experiment on SW-620, 27.2 µM (inactive); in the experiment with HOP-62, 11.7 µM (inactive); in the experiment with MOLT-4 it was > 31.6 µM (inactive); in the experiment on LOX IMVI, > 100 µM (inactive); in the experiment with IGROV-1, 26.2 µM (inactive). Moreover, the GI50 in the experiment with T47D is > 49.1 µM (inactive); in the experiment with U-251, > 42.2 µM (inactive); in the experiment on UO-31, 44.4 µM (inactive); in the experiment with KM12 it was 23.4 µM (inactive); with M14, > 50.5 µM (inactive); with NCI-H460, 20.6 µM (inactive).

On to `O=C1c2cccc(NCCCNCCO)c2C(=O)c2cccc(NCCCNCCO)c21`, for which the GI50 was 1.67 µM (inactive) with MDA-MB-435; 3.85 µM (inactive) in the experiment with TK-10; 2.44 µM (inactive) with RPMI-8226; 2.41 µM (inactive) with PC-3; 2.08 µM (inactive) in the experiment on 786-0; 2.05 µM (inactive) with BT-549. The GI50 with SN12C is 0.935 µM (active); in the experiment on SW-620 it was 2.4 µM (inactive); in the experiment on HOP-62, 1.96 µM (inactive); in the experiment on MOLT-4, 0.769 µM (active); in the experiment with LOX IMVI, 2.29 µM (inactive); in the experiment with IGROV-1, 2.81 µM (inactive). In addition, the GI50 with T47D was 3.27 µM (inactive); with UO-31, 9.59 µM (inactive); in the experiment with KM12, 2.12 µM (inactive); with M14, 3.61 µM (inactive); with NCI-H460, 1.68 µM (inactive).

`CC(=O)c1[nH]c(NCc2ccccc2)c(C(=S)Nc2ccccc2)c1N`: the GI50 in the experiment with SR is 28.7 µM (inactive); in the experiment on MDA-MB-435, 18.2 µM (inactive); with TK-10, 27.5 µM (inactive); with PC-3 it was 39.6 µM (inactive); in the experiment with 786-0, 17.3 µM (inactive); in the experiment with BT-549, 23.5 µM (inactive). Moreover, the GI50 is 22.5 µM (inactive) with SN12C; 32.1 µM (inactive) in the experiment with SW-620; 19.9 µM (inactive) in the experiment with HOP-62; 36.7 µM (inactive) in the experiment with MOLT-4; 17.4 µM (inactive) in the experiment on LOX IMVI; 0.317 µM (active) in the experiment with IGROV-1. Further, the GI50 in the experiment with T47D was 22 µM (inactive); in the experiment with U-251, 17.3 µM (inactive); in the experiment on UO-31, 0.452 µM (active); in the experiment with KM12, 17.9 µM (inactive); in the experiment on M14, 18.9 µM (inactive); in the experiment with NCI-H460 it was 22.8 µM (inactive).
